{"source": "paper PMC4364341", "about": "“NBD delivery improves the disease phenotype of the golden retriever model of Duchenne muscular dystrophy” (Skeletal Muscle, 2014)", "key": {"[1]": {"settings": "dog, in vivo, iv, 10 mg/kg", "method": "In addition to efficacy, we were interested in examining the safety profile of NBD, since long-term dosing in any animal model had yet to be performed. Blood samples at pre-dose, mid dose, and terminal dose were obtained for hematology and serum chemistry analysis. […] Supplementary file 2044-5040-4-18-S2.jpeg: Additional file 2: Figure S2 Hematologic changes in NBD-treated dogs. Serum was prepared from blood samples obtained at indicated time points prior to and following dosing with NBD in wild type and GRMD dogs. Serum samples were analyzed for complete blood counts (CBC). The graphs show results for white blood cells, red blood cells, and platelet counts. Click here for file Supplementary file 2044-5040-4-18-S3.jpeg: Additional file 3: Figure S3 Clinicopathologic changes in NBD-treated dogs. Serum was prepared from blood samples obtained at indicated time points prior to and following dosing with NBD in wild type and GRMD dogs. Serum samples were analyzed for ALT, AST, GGT, bilirubin, creatinine, potassium, and creatine kinase. Click here for file"}, "GRMD dogs [2]": {"system": "GRMD dogs", "assay": "Cranial sartorius (CS) circumference, GRMD dogs", "assay_type": "in vivo, dog", "settings": "age 6 months, NBD 10 mg/kg IV 3x weekly for 4 months, n = 6", "text": "We have previously shown that the CS muscle undergoes dramatic hypertrophy in GRMD dogs and that this hypertrophy tracks with postural abnormalities. Accordingly, we use CS circumference measured at surgery during routine biopsy as a surrogate for muscle hypertrophy and associated postural changes in GRMD [24]. Dogs were anesthetized (above), and an incision was made over the cranial aspect of the thigh. In advance of biopsy, the CS muscle was isolated. Nylon suture was placed around the muscle at approximately midsection and tightened so as to snugly encircle the muscle belly. The two ends of the suture were secured with a pair of hemostats and then cut on the muscle side of the hemostat. The length in mm was divided by body mass in kg (mm/kg). An average of two measurements was recorded."}, "mdx mice": {"system": "mdx mice", "assay": "Histopathology of quadriceps muscles of NBD-treated mdx mice", "assay_type": "in vivo, mouse", "settings": "4 weeks, Quad muscles", "method": "Mdx mice (C57BL/10ScSn-DMD^mdx/J) were purchased from The Jackson Laboratory and housed in the animal facility (University Laboratory Animal Resources, ULAR) at The Ohio State University under conventional conditions with constant temperature and humidity, and fed with standard diet. Treatment of mice was performed between 5 and 7 weeks of age as earlier described, and in accordance with the guidelines of the Institutional Animal Care and Use Committee at The Ohio State University. Efficacy of NBD was assessed comparing four groups (n = 5 each) of mdx mice treated either with vehicle or 3, 2, or 1 × per week with NBD by intraperitoneal (IP) delivery. Two separate groups (n = 10) were dosed subcutaneously (SQ) with vehicle or NBD, and finally two groups (n = 5) were treated with vehicle or NBD by intravenous (IV) delivery. Vascular access ports (VAP) were placed subcutaneously over the dorsal torso and a catheter was surgically inserted into the jugular vein. The catheter was kept clear by a pre- and post-wash with heparin.\nFor mice muscles, histopathological assessment was performed as earlier described. For canine samples, CS, lateral gastrocnemius, vastus lateralis, and diaphragm muscles were assessed at the end of the 4-month treatment period when dogs were necropsied. Muscle samples were snap frozen in isopentane cooled in liquid nitrogen, and stored at -80°C. A total of 16 dogs (3 wild type, 2 wild type + NBD, 5 untreated GRMD, and 6 GRMD + NBD) were assessed. […] For each stain, quantitation was performed on three 10 μm sections of each muscle. To determine the degree of inflammation, cells that stained with a canine specific macrophage PM2K antibody were quantitated. Muscle damage was assessed by scoring for IgG-positive myofibers using immunofluorescence, and necrotic foci by hematoxylin and eosin (H&E) staining. Centrally located nuclei (CLN) were quantified on H&E sections to determine the degree of regeneration. Staining was quantitated on an Olympus BX51 microscope with Microsuite Five software (Olympus Soft Imaging Solutions GmbH, Center Valley, PA, USA). […]"}, "wild type dogs": {"system": "wild type dogs", "settings": "dog, in vivo", "method": "(§1) For mice muscles, histopathological assessment was performed as earlier described. For canine samples, CS, lateral gastrocnemius, vastus lateralis, and diaphragm muscles were assessed at the end of the 4-month treatment period when dogs were necropsied. Muscle samples were snap frozen in isopentane cooled in liquid nitrogen, and stored at -80°C. A total of 16 dogs (3 wild type, 2 wild type + NBD, 5 untreated GRMD, and 6 GRMD + NBD) were assessed. Serial frozen sections (n = 10 per dog) from each muscle were processed. For each stain, quantitation was performed on three 10 μm sections of each muscle. To determine the degree of inflammation, cells that stained with a canine specific macrophage PM2K antibody were quantitated. Muscle damage was assessed by scoring for IgG-positive myofibers using immunofluorescence, and necrotic foci by hematoxylin and eosin (H&E) staining. Centrally located nuclei (CLN) were quantified on H&E sections to determine the degree of regeneration. Staining was quantitated on an Olympus BX51 microscope with Microsuite Five software (Olympus Soft Imaging Solutions GmbH, Center Valley, PA, USA). A composite score for all four muscles, reflecting muscle injury, inflammation, and regeneration, was determined."}, "[3]": {"system": "utrn-/-;mdx double knock out (dko) mice", "settings": "NBD-treated dko mice; cited from earlier work", "text": "Our ability to collectively achieve such a benefit in GRMD dogs, as well as in mdx diaphragm, [9, 13] and dko hearts, supports the pre-clinical efficacy of NBD. Due to interspecies differences among mice, dogs, and humans, it is difficult to say e ..."}, "GRMD dogs [4]": {"system": "GRMD dogs", "assay": "Histopathologic assessment of skeletal muscles, GRMD dogs", "assay_type": "in vivo, dog", "method": "as §1"}, "[5]": {"settings": "Average rescue of 4 muscles, NBD 10 mg/kg IV 3x weekly for 4 months"}, "[6]": {"settings": "Cranial sartorius, NBD 10 mg/kg IV 3x weekly for 4 months, p = 0.14"}, "[7]": {"settings": "Diaphragm, NBD 10 mg/kg IV 3x weekly for 4 months"}, "[8]": {"settings": "Lateral gastroc, NBD 10 mg/kg IV 3x weekly for 4 months"}, "[9]": {"settings": "Vastus lateralis, NBD 10 mg/kg IV 3x weekly for 4 months"}}, "data": [{"sequence": "TALDWSWLQTE [NBD, NBD peptide (…) fused to an Antennapedia protein transduction domain]", "values": [{"measurement": "Hematology and serum chemistry analysis", "setting": "[1]", "value": "no adverse effects"}, {"measurement": "CS Circumference", "setting": "GRMD dogs [2]", "value": "3.67 ± 0.65", "unit": "mm/kg"}, {"measurement": "Histopathologic improvement with reduced treatment frequencies", "setting": "mdx mice; IP 10 mg/kg, 2x or 1x per week compared to 3x per week, n = 5 per group", "value": "less pronounced"}, {"measurement": "Histopathologic improvement after intravenous dosing", "setting": "mdx mice; IV via VAP, 10 mg/kg 3x weekly, n = 5 per group", "value": "significant histopathologic improvement"}, {"measurement": "Reduction of muscle inflammation and necrosis after subcutaneous dosing", "setting": "mdx mice; SQ 10 mg/kg 3x weekly, n = 10 per group", "value": "no such improvements were observed"}, {"measurement": "Histopathological lesions in NBD treated versus untreated wild type dogs", "setting": "wild type dogs", "value": "negligible"}, {"measurement": "Functional response, dko heart", "setting": "[3]", "value": "improved back to wild type"}, {"measurement": "Inflammation (PM2K-positive macrophages), percent difference GRMD vs GRMD + NBD", "setting": "GRMD dogs [4]; [5]", "value": 35.5, "unit": "%"}, {"measurement": "Necrosis (IgG-positive myofibers), percent difference GRMD vs GRMD + NBD", "setting": "GRMD dogs [4]; [5]", "value": 30.3, "unit": "%"}, {"measurement": "Regeneration (centrally located nuclei), percent difference GRMD vs GRMD + NBD", "setting": "GRMD dogs [4]; [5]", "value": 40.8, "unit": "%"}, {"measurement": "Inflammation (PM2K-positive macrophages), percent difference GRMD vs GRMD + NBD", "setting": "GRMD dogs [4]; Cranial sartorius, NBD 10 mg/kg IV 3x weekly for 4 months, p < 0.05", "value": 34, "unit": "%"}, {"measurement": "Necrosis (Foci, H&E), percent difference GRMD vs GRMD + NBD", "setting": "GRMD dogs [4]; [6]", "value": 25, "unit": "%"}, {"measurement": "Necrosis (IgG-positive myofibers), percent difference GRMD vs GRMD + NBD", "setting": "GRMD dogs [4]; [6]", "value": 22, "unit": "%"}, {"measurement": "Regeneration (centrally located nuclei), percent difference GRMD vs GRMD + NBD", "setting": "GRMD dogs [4]; Cranial sartorius, NBD 10 mg/kg IV 3x weekly for 4 months, reduced, p < 0.05", "value": 43, "unit": "%"}, {"measurement": "Inflammation (PM2K-positive macrophages), percent difference GRMD vs GRMD + NBD", "setting": "GRMD dogs [4]; [7]", "value": 37, "unit": "%"}, {"measurement": "Necrosis (Foci, H&E), percent difference GRMD vs GRMD + NBD", "setting": "GRMD dogs [4]; [7]", "value": 37, "unit": "%"}, {"measurement": "Necrosis (IgG-positive myofibers), percent difference GRMD vs GRMD + NBD", "setting": "GRMD dogs [4]; [7]", "value": 32, "unit": "%"}, {"measurement": "Regeneration (centrally located nuclei), percent difference GRMD vs GRMD + NBD", "setting": "GRMD dogs [4]; [7]", "value": 41, "unit": "%"}, {"measurement": "Final Histological Score of Improvement (composite of all four muscles)", "setting": "GRMD dogs [4]; GRMD + NBD vs untreated GRMD, NBD 10 mg/kg IV 3x weekly for 4 months", "value": 35.5, "unit": "%"}, {"measurement": "Reduction of CS myofiber size vs untreated GRMD muscles", "setting": "GRMD dogs [4]; GRMD + NBD, n = 6, 1800 fibers, P <0.05", "value": 46, "unit": "%"}, {"measurement": "Inflammation (PM2K-positive macrophages), percent difference GRMD vs GRMD + NBD", "setting": "GRMD dogs [4]; [8]", "value": 40, "unit": "%"}, {"measurement": "Necrosis (Foci, H&E), percent difference GRMD vs GRMD + NBD", "setting": "GRMD dogs [4]; [8]", "value": 34, "unit": "%"}, {"measurement": "Regeneration (centrally located nuclei), percent difference GRMD vs GRMD + NBD", "setting": "GRMD dogs [4]; [8]", "value": 35, "unit": "%"}, {"measurement": "Inflammation (PM2K-positive macrophages), percent difference GRMD vs GRMD + NBD", "setting": "GRMD dogs [4]; [9]", "value": 31, "unit": "%"}, {"measurement": "Necrosis (IgG-positive myofibers), percent difference GRMD vs GRMD + NBD", "setting": "GRMD dogs [4]; [9]", "value": 32, "unit": "%"}, {"measurement": "Regeneration (centrally located nuclei), percent difference GRMD vs GRMD + NBD", "setting": "GRMD dogs [4]; [9]", "value": 44, "unit": "%"}]}]}
